Data published in patent US10160747B2, “Compounds and methods for kinase modulation, and indications therefor” (Plexxikon Inc., priority 2016, dated 2018).

Legend:
FLT3-ITD = molecular target: T1, FLT3-ITD (Homo sapiens, UniProt P36888); test: FLT3-ITD recombinant enzyme kinase assay (AlphaScreen); type: biochemical; details: 8 pt; read-out: FLT3_ITD 8 pt: IC50
T1 sequence (P36888 1-993): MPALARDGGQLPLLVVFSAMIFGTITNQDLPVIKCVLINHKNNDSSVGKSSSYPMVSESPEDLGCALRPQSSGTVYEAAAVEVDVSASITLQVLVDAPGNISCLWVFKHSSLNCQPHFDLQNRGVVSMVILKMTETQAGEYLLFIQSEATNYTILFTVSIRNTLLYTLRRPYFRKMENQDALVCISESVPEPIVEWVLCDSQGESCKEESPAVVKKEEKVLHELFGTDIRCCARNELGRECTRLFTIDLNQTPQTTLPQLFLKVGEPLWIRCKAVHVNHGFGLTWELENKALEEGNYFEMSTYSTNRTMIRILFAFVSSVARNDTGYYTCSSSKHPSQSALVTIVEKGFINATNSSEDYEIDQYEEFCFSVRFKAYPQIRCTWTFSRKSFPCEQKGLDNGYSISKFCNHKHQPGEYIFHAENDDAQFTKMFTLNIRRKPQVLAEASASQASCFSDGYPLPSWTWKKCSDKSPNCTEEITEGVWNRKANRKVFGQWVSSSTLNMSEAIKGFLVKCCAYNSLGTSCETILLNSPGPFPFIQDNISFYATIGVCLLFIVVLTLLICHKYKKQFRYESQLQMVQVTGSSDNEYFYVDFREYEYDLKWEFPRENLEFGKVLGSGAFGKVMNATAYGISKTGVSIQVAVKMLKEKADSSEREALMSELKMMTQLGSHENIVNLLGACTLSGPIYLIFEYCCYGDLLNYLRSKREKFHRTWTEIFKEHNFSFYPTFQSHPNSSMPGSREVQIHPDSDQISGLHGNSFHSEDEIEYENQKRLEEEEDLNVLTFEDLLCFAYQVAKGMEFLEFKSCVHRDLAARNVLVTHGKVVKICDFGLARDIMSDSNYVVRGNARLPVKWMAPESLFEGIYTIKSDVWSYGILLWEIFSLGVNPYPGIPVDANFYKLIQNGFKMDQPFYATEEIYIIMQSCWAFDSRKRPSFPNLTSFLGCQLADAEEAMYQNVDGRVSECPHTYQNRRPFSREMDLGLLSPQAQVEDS
Method in brief: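 Substrate 30 nM biotin-GG(EEEEY)10EE; ATP 10 μM (FLT3-ITD, FLT3-D835Y) or 100 μM (c-KIT). Detection: AlphaScreen PY20 kit, 10 μg/mL beads, RT 20 + 60 min. Readout 580 nm; IC50.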

[1] = system: MOLM-14 D835Y (endogenous FLT3 ITD and transfected FLT3 D835Y); test: MOLM-14 D835Y cell proliferation assay (CellTiter-Glo); type: cell-based; details: Homo sapiens, MOLM-14, 72 h; 3 d growth, GMean
Method in brief: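 MOLM-14 cells (FLT3 ITD) carrying D835Y or F691L, 1×10^4 cells/well, eight 1:3 dilutions from 1 μM final, 0.2% DMSO, 3 days at 37 °C, 5% CO2. Viability by CellTiter-Glo luminescence (ATP content); IC50 from concentration-response.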

Row | IC50 (FLT3-ITD) [µM] | IC50 [1] [µM] | SMILES
1 | 0.0001 to 10 | 0.0001 to 10 | Cn1cc(Nc2ncc(-c3ccc(CC(=O)NCc4ncccc4C(F)(F)F)cc3)cn2)cn1 [Compound P-0159, 2-[4-[2-[(1-methylpyrazol-4-yl)amino]pyrimidin-5-yl]phenyl]-N-[[3-(trifluoromethyl)-2-pyridyl]methyl]acetamide]
2 | 0.0001 to 10 | 0.0001 to 10 | CCn1cc(Nc2ncc(-c3ccc(CC(=O)Nc4cnc(Cl)c(C(F)(F)F)c4)cc3)cn2)cn1 [Compound P-0165, N-[6-chloro-5-(trifluoromethyl)-3-pyridyl]-2-[4-[2-[(1-ethylpyrazol-4-yl)amino]pyrimidin-5-yl]phenyl]acetamide]
3 | 0.0001 to 10 | 0.0001 to 10 | Cn1cnc(Nc2ncc(-c3ccc(CC(=O)Nc4cc(C(C)(F)F)ccn4)c(F)c3)cn2)c1 [Compound P-0102, N-[4-(1,1-difluoroethyl)-2-pyridyl]-2-[2-fluoro-4-[2-[(1-methylimidazol-4-yl)amino]pyrimidin-5-yl]phenyl]acetamide]
4 | 0.0001 to 10 | 0.0001 to 10 | Cn1cc(Nc2ncc(-c3ccc(CC(=O)Nc4ccnc(C5CC5)c4)c(F)c3)cn2)cn1 [Compound P-0098, N-(2-cyclopropyl-4-pyridyl)-2-[2-fluoro-4-[2-[(1-methylpyrazol-4-yl)amino]pyrimidin-5-yl]phenyl]acetamide]
5 | 0.0001 to 10 | 0.0001 to 10 | CCc1cncc(NC(=O)Cc2ccc(-c3cnc(Nc4cnn(C)c4)nc3)cc2F)c1 [Compound P-0111, N-(5-ethyl-3-pyridyl)-2-[2-fluoro-4-[2-[(1-methylpyrazol-4-yl)amino]pyrimidin-5-yl]phenyl]acetamide]
6 | 0.0001 to 10 | 0.0001 to 10 | Cc1ncc(NC(=O)Cc2ccc(-c3cnc(Nc4cnn(C)c4)nc3)cc2F)cc1C(F)(F)F [Compound P-0091, 2-[2-fluoro-4-[2-[(1-methylpyrazol-4-yl)amino]pyrimidin-5-yl]phenyl]-N-[6-methyl-5-(trifluoromethyl)-3-pyridyl]acetamide]
7 | 0.0001 to 10 | 0.0001 to 10 | Cn1cc(Nc2ncc(-c3ccc(CC(=O)Nc4cccc(C(F)(F)F)c4)cc3)cn2)cn1 [Compound P-0141, 2-[4-[2-[(1-methylpyrazol-4-yl)amino]pyrimidin-5-yl]phenyl]-N-[3-(trifluoromethyl)phenyl]acetamide]
8 | 0.0001 to 10 | 0.0001 to 10 | Cn1cc(Nc2ncc(-c3ccc(CC(=O)Nc4cc(Cl)c(C5CC5)cn4)cc3)cn2)cn1 [Compound P-0164, N-(4-chloro-5-cyclopropyl-2-pyridyl)-2-[4-[2-[(1-methylpyrazol-4-yl)amino]pyrimidin-5-yl]phenyl]acetamide]
9 | 0.0001 to 10 | 0.0001 to 10 | Cn1cc(Nc2ncc(-c3ccc(CC(=O)Nc4cnc(F)c(C(C)(F)F)c4)cc3)cn2)cn1 [Compound P-0104, N-[5-(1,1-difluoroethyl)-6-fluoro-3-pyridyl]-2-[4-[2-[(1-methylpyrazol-4-yl)amino]pyrimidin-5-yl]phenyl]acetamide]
10 | 0.0001 to 10 | 0.0001 to 10 | Cn1cc(Nc2ncc(-c3ccc(CC(=O)Nc4cccc(C(C)(C)C#N)c4)cc3)cn2)cn1 [Compound P-0158, N-[3-(1-cyano-1-methyl-ethyl)phenyl]-2-[4-[2-[(1-methylpyrazol-4-yl)amino]pyrimidin-5-yl]phenyl]acetamide]
11 | 0.0001 to 10 | 0.0001 to 10 | O=C(Cc1ccc(-c2cnc3[nH]c(-c4ccc(N5CCOCC5)nc4)cc3c2)c(F)c1)Nc1cncc(C(F)(F)F)c1 [Compound P-0198, 2-[3-fluoro-4-[2-(6-morpholino-3-pyridyl)-1H-pyrrolo[2,3-b]pyridin-5-yl]phenyl]-N-[5-(trifluoromethyl)-3-pyridyl]acetamide]
12 | 0.0001 to 10 | 0.0001 to 10 | Cc1ncc(NC(=O)Cc2cc(F)c(-c3cnc4[nH]nc(C)c4c3)cc2F)cc1C(F)(F)F [Compound P-0175, 2-(2,5-difluoro-4-(3-methyl-1H-pyrazolo[3,4-b]pyridin-5-yl)phenyl)-N-(6-methyl-5-(trifluoromethyl)pyridin-3-yl)acetamide]
13 | 0.0001 to 10 | 0.0001 to 10 | COc1ncc(NC(=O)Cc2cc(F)c(-c3cnc4[nH]nc(C)c4c3)cc2F)cc1C(F)(F)F [Compound P-0176, 2-[2,5-difluoro-4-(3-methyl-1H-pyrazolo[3,4-b]pyridin-5-yl)phenyl]-N-[6-methoxy-5-(trifluoromethyl)-3-pyridyl]acetamide]
14 | 0.0001 to 10 | 0.0001 to 10 | COc1cc(NC(=O)Cc2ccc(-c3cnc(Nc4cnn(C)c4)nc3)cc2)ccn1 [Compound P-0153, N-(2-methoxy-4-pyridyl)-2-[4-[2-[(1-methylpyrazol-4-yl)amino]pyrimidin-5-yl]phenyl]acetamide]
15 | 0.0001 to 10 | 0.0001 to 10 | Cn1cc(Nc2ncc(-c3ccc(CC(=O)Nc4ccc(C(F)(F)F)cn4)cc3)cn2)cn1 [Compound P-0109, 2-[4-[2-[(1-methylpyrazol-4-yl)amino]pyrimidin-5-yl]phenyl]-N-[5-(trifluoromethyl)-2-pyridyl]acetamide]
16 | 0.0001 to 10 | 0.0001 to 10 | Cn1cc(Nc2ncc(-c3ccc(CC(=O)Nc4cccc(OC(F)(F)F)c4)cc3)cn2)cn1 [Compound P-0157, 2-[4-[2-[(1-methylpyrazol-4-yl)amino]pyrimidin-5-yl]phenyl]-N-[3-(trifluoromethoxy)phenyl]acetamide]
17 | 0.0001 to 10 | 0.0001 to 10 | Cn1cnc(Nc2ncc(-c3ccc(CC(=O)Nc4cnc(Cl)c(C(F)(F)F)c4)c(F)c3)cn2)c1 [Compound P-0100, N-[6-chloro-5-(trifluoromethyl)-3-pyridyl]-2-[2-fluoro-4-[2-[(1-methylimidazol-4-yl)amino]pyrimidin-5-yl]phenyl]acetamide]

Row | SMILES | IC50 (FLT3-ITD) [µM] | IC50 [1] [µM]
18 | COc1ncc(NC(=O)Cc2ccc(-c3cnc(Nc4cn(C)cn4)nc3)cc2F)cc1C(F)(F)F [Compound P-0101, 2-[2-fluoro-4-[2-[(1-methylimidazol-4-yl)amino]pyrimidin-5-yl]phenyl]-N-[6-methoxy-5-(trifluoromethyl)-3-pyridyl]acetamide] | 0.0001 to 10 | 0.0001 to 10
